# Patent US8618300B2, “Indolizine inhibitors of leukotriene production” (Boehringer Ingelheim International GmbH, priority 2008, dated 2013)
# Biological target: T1, recombinant human FLAP protein (Homo sapiens, UniProt P20292)
# T1 construct: made in house; host or cells: Sf9 insect cells (100,000 x g membrane pellet)
# T1 sequence (P20292 1-161): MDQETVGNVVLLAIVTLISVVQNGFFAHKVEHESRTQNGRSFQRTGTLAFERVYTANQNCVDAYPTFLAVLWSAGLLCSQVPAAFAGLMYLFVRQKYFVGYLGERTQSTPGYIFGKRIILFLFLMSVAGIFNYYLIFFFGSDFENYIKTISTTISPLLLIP
# Assay: FLAP binding assay, Scintillation Proximity Assay, displacement of [125I]L-691,831
# Conditions: read-out: hFLAP binding IC50
# Method: Compounds are assessed for the ability to bind to FLAP in a binding assay that measures compound-specific displacement of an iodinated (^1251) FLAP inhibitor via a Scintillation Proximity Assay format (adapted from S. Charleson et al., Mol. Pharmacol., 1992, 41, 873-879).
# Cell pellets produced from sf9 insect cells expressing recombinant human FLAP protein are resuspended in buffer A [15 mM Tris-HCl (pH 7.5), 2 mM MgCl2, 0.3 mM EDTA, 1 mM PMSF]. The cells are lysed with a Dounce homogenizer and the material is centrifuged at 10,000×g for 10 minutes. The supernatant is then collected and centrifuged at 100,000×g for 60 minutes. To prepare membrane protein for an assay, an aliquot of the 100,000×g pellet is resuspended in 1 ml of buffer A, Dounce homogenized, and finally subjected to polytron mixing (30 seconds). Membrane protein (25 μl, 5 μg) is mixed with WGA SPA beads (Amersham) and stirred for 1 h. To an assay plate (Perkin Elmer FlexiPlate) is added 25 μl of test compound prepared in Binding buffer [100 mM Tris (pH 7.5), 140 mM NaCl, 5% glycerol, 2 mM EDTA, 0.5 mM TCEP, 0.05% Tween 20], 25 μl of [^125I]L-691,831 (an iodinated analog of MK-591, Charleson et al. Mol. Pharmacol., 41, 873-879, 1992) and finally 50 μl of the bead/protein mixture. (final concentrations: beads, 200 μg/well; protein, 5 μg/well; [^125I] probe, 0 08 nM/well (17 nCi/well). The plates are shaken for 2 h before reading on a Microbeta plate reader. Non-specific binding is determined by the addition of 10 μM cold L-691,831 compound.
row,SMILES,IC50 [nM]
1,"Cc1nc(COc2ccc3c(C(=O)c4ccc(Cl)cc4)c(CC(C)(C)C(=O)O)c(C(=O)C(C)(C)C)n3c2)cs1 [3-{1-[(4-chlorophenyl)carbonyl]-3-(2,2-dimethylpropanoyl)-6-[(2-methyl-1,3-thiazol-4-yl)methoxy]indolizin-2-yl}-2,2-dimethylpropanoic acid]",38
2,"Cc1cccc(COc2ccc3c(C(=O)c4ccc(Cl)cc4)c(CC(C)(C)C(=O)O)c(C(=O)C(C)(C)C)n3c2)n1 [3-{1-[(4-chlorophenyl)carbonyl]-3-(2,2-dimethylpropanoyl)-6-[(6-methylpyridin-2-yl)methoxy]indolizin-2-yl}-2,2-dimethylpropanoic acid]",8
3,"Cc1nc(COc2ccn3c(C(=O)c4ccc(Cl)c(Cl)c4)c(CC(C)(C)C(=O)O)c(C(=O)C(C)(C)C)c3c2)cs1 [3-{3-[(3,4-dichlorophenyl)carbonyl]-1-(2,2-dimethylpropanoyl)-7-[(2-methyl-1,3-thiazol-4-yl)methoxy]indolizin-2-yl}-2,2-dimethylpropanoic acid]",111
4,"Cc1csc(COc2ccn3c(C(=O)c4ccc(Cl)c(Cl)c4)c(CC(C)(C)C(=O)O)c(C(=O)C(C)(C)C)c3c2)n1 [3-{3-[(3,4-dichlorophenyl)carbonyl]-1-(2,2-dimethylpropanoyl)-7-[(4-methyl-1,3-thiazol-2-yl)methoxy]indolizin-2-yl}-2,2-dimethylpropanoic acid]",1
5,"Cc1cccc(COc2ccn3c(C(=O)c4ccc(Cl)c(Cl)c4)c(CC(C)(C)C(=O)O)c(C(=O)C(C)(C)C)c3c2)n1 [3-{3-[(3,4-dichlorophenyl)carbonyl]-1-(2,2-dimethylpropanoyl)-7-[(6-methylpyridin-2-yl)methoxy]indolizin-2-yl}-2,2-dimethylpropanoic acid]",1
6,"Cc1nc(COc2ccn3c(C(=O)c4cc(Cl)cc(Cl)c4)c(CC(C)(C)C(=O)O)c(C(=O)C(C)(C)C)c3c2)cs1 [3-{3-[(3,5-dichlorophenyl)carbonyl]-1-(2,2-dimethylpropanoyl)-7-[(2-methyl-1,3-thiazol-4-yl)methoxy]indolizin-2-yl}-2,2-dimethylpropanoic acid]",1
7,"Cc1csc(COc2ccn3c(C(=O)c4cccc(Cl)c4)c(CC(C)(C)C(=O)O)c(C(=O)C(C)(C)C)c3c2)n1 [3-{3-[(3-chlorophenyl)carbonyl]-1-(2,2-dimethylpropanoyl)-7-[(4-methyl-1,3-thiazol-2-yl)methoxy]indolizin-2-yl}-2,2-dimethylpropanoic acid]",1
8,"CC(C)c1ccn2c(C(=O)N(C)c3ccc(Br)cc3)c(CC(C)(C)C(=O)O)c(C(=O)C(C)(C)C)c2c1 [3-{3-[(4-bromophenyl)(methyl)carbamoyl]-1-(2,2-dimethylpropanoyl)-7-(propan-2-yl)indolizin-2-yl}-2,2-dimethylpropanoic acid]",156
9,"CC(C)(C)C(=O)c1c(CC(C)(C)C(=O)O)c(C(=O)c2ccc(Br)cc2)n2ccc(OCc3ccccn3)cc12 [3-{3-[(4-bromophenyl)carbonyl]-1-(2,2-dimethylpropanoyl)-7-(pyridin-2-ylmethoxy)indolizin-2-yl}-2,2-dimethylpropanoic acid]",99
10,"Cc1nc(COc2ccn3c(C(=O)c4ccc(Cl)c(C)c4)c(CC(C)(C)C(=O)O)c(C(=O)C(C)(C)C)c3c2)cs1 [3-{3-[(4-chloro-3-methylphenyl)carbonyl]-1-(2,2-dimethylpropanoyl)-7-[(2-methyl-1,3-thiazol-4-yl)methoxy]indolizin-2-yl}-2,2-dimethylpropanoic acid]",2
11,"Cc1csc(COc2ccn3c(C(=O)c4ccc(Cl)c(C)c4)c(CC(C)(C)C(=O)O)c(C(=O)C(C)(C)C)c3c2)n1 [3-{3-[(4-chloro-3-methylphenyl)carbonyl]-1-(2,2-dimethylpropanoyl)-7-[(4-methyl-1,3-thiazol-2-yl)methoxy]indolizin-2-yl}-2,2-dimethylpropanoic acid]",1
12,"CC(C)(C)C(=O)c1c(CC(C)(C)C(=O)O)c(C(=O)c2ccc(Cl)cc2)n2ccc(OCc3nccs3)cc12 [3-{3-[(4-chlorophenyl)carbonyl]-1-(2,2-dimethylpropanoyl)-7-(1,3-thiazol-2-ylmethoxy)indolizin-2-yl}-2,2-dimethylpropanoic acid]",25
13,"CC(C)(C)C(=O)c1c(CC(C)(C)C(=O)O)c(C(=O)c2ccc(Cl)cc2)n2ccc(OCc3cscn3)cc12 [3-{3-[(4-chlorophenyl)carbonyl]-1-(2,2-dimethylpropanoyl)-7-(1,3-thiazol-4-ylmethoxy)indolizin-2-yl}-2,2-dimethylpropanoic acid]",118
14,"CC(C)(C)C(=O)c1c(CC(C)(C)C(=O)O)c(C(=O)c2ccc(Cl)cc2)n2ccc(OCc3ccccn3)cc12 [3-{3-[(4-chlorophenyl)carbonyl]-1-(2,2-dimethylpropanoyl)-7-(pyridin-2-ylmethoxy)indolizin-2-yl}-2,2-dimethylpropanoic acid]",44
15,"CC(C)(C)C(=O)c1c(CC(C)(C)C(=O)O)c(C(=O)c2ccc(Cl)cc2)n2ccc(OCc3ncccn3)cc12 [3-{3-[(4-chlorophenyl)carbonyl]-1-(2,2-dimethylpropanoyl)-7-(pyrimidin-2-ylmethoxy)indolizin-2-yl}-2,2-dimethylpropanoic acid]",64
16,"CC(C)(C)C(=O)c1c(CC(C)(C)C(=O)O)c(C(=O)c2ccc(Cl)cc2)n2ccc(OCc3ccc4ccccc4n3)cc12 [3-{3-[(4-chlorophenyl)carbonyl]-1-(2,2-dimethylpropanoyl)-7-(quinolin-2-ylmethoxy)indolizin-2-yl}-2,2-dimethylpropanoic acid]",8
17,"COc1nc(COc2ccn3c(C(=O)c4ccc(Cl)cc4)c(CC(C)(C)C(=O)O)c(C(=O)C(C)(C)C)c3c2)cs1 [3-{3-[(4-chlorophenyl)carbonyl]-1-(2,2-dimethylpropanoyl)-7-[(2-methoxy-1,3-thiazol-4-yl)methoxy]indolizin-2-yl}-2,2-dimethylpropanoic acid]",69
18,"Cc1nc(COc2ccn3c(C(=O)c4ccc(Cl)cc4)c(CC(C)(C)C(=O)O)c(C(=O)C(C)(C)C)c3c2)cs1 [3-{3-[(4-chlorophenyl)carbonyl]-1-(2,2-dimethylpropanoyl)-7-[(2-methyl-1,3-thiazol-4-yl)methoxy]indolizin-2-yl}-2,2-dimethylpropanoic acid]",18
19,"COc1c(C)cnc(COc2ccn3c(C(=O)c4ccc(Cl)cc4)c(CC(C)(C)C(=O)O)c(C(=O)C(C)(C)C)c3c2)c1C [3-{3-[(4-chlorophenyl)carbonyl]-1-(2,2-dimethylpropanoyl)-7-[(4-methoxy-3,5-dimethylpyridin-2-yl)methoxy]indolizin-2-yl}-2,2-dimethylpropanoic acid]",58
20,"COc1ccnc(COc2ccn3c(C(=O)c4ccc(Cl)cc4)c(CC(C)(C)C(=O)O)c(C(=O)C(C)(C)C)c3c2)c1 [3-{3-[(4-chlorophenyl)carbonyl]-1-(2,2-dimethylpropanoyl)-7-[(4-methoxypyridin-2-yl)methoxy]indolizin-2-yl}-2,2-dimethylpropanoic acid]",8
21,"COc1cccc(COc2ccn3c(C(=O)c4ccc(Cl)cc4)c(CC(C)(C)C(=O)O)c(C(=O)C(C)(C)C)c3c2)n1 [3-{3-[(4-chlorophenyl)carbonyl]-1-(2,2-dimethylpropanoyl)-7-[(6-methoxypyridin-2-yl)methoxy]indolizin-2-yl}-2,2-dimethylpropanoic acid]",8
22,"Cc1cccc(COc2ccn3c(C(=O)c4ccc(Cl)cc4)c(CC(C)(C)C(=O)O)c(C(=O)C(C)(C)C)c3c2)n1 [3-{3-[(4-chlorophenyl)carbonyl]-1-(2,2-dimethylpropanoyl)-7-[(6-methylpyridin-2-yl)methoxy]indolizin-2-yl}-2,2-dimethylpropanoic acid]",17
23,"CC(C)(C)CC(=O)c1c(CC(C)(C)C(=O)O)c(C(=O)c2ccc(Cl)cc2)n2ccc(OCc3ccc4ccccc4n3)cc12 [3-{3-[(4-chlorophenyl)carbonyl]-1-(3,3-dimethylbutanoyl)-7-(quinolin-2-ylmethoxy)indolizin-2-yl}-2,2-dimethylpropanoic acid]",85
24,"COc1ccc(C(=O)c2c(CC(C)(C)C(N)=O)c(C(=O)C(C)(C)C)c3cc(OCc4cccc(N)n4)ccn23)cc1 [3-{7-[(6-aminopyridin-2-yl)methoxy]-1-(2,2-dimethylpropanoyl)-3-(4-methoxybenzoyl)indolizin-2-yl}-2,2-dimethylpropanamide]",2
25,"COc1ccc(C(=O)c2c(C[C@@H](C(=O)O)C(C)C)c(C(=O)C(C)(C)C)c3cc(OCc4csc(C)n4)ccn23)cc1 [(2R)-2-({1-(2,2-dimethylpropanoyl)-3-[(4-methoxyphenyl)carbonyl]-7-[(2-methyl-1,3-thiazol-4-yl)methoxy]indolizin-2-yl}methyl)-3-methylbutanoic acid]",7
